The text below walks through data of ChEMBL document CHEMBL3352766, “Weakly anti-inflammatory limonoids from the seeds of Xylocarpus rumphii” (J Nat Prod, 2014).

pIC50: −log10 of the molar value. Active and inactive are the calls of the source. The rule behind the calls is not given here.

Experiment [1] relates to J774.A1. The experiment is described as follows: Antiinflammatory activity in mouse J774.A1 cells assessed as inhibition of LPS-induced NO production at 50 uM treated 2 hrs before LPS challenge measured after 20 hrs. In kind it is functional, cell-based.
In experiment [2] the test system is J774.A1. The experiment is described as follows: Antiinflammatory activity in mouse J774.A1 cells assessed as inhibition of LPS-induced NO production treated 2 hrs before LPS challenge measured after 20 hrs. The class given is functional, cell-based.

On to `COC(=O)C[C@H]1[C@]2(C)C[C@@]34OC5(C)O[C@]6([C@@H]7[C@H](O)C(=O)O[C@@H](c8ccoc8)[C@]7(C)CC[C@]6(O5)[C@]13C)[C@H](OC(C)=O)[C@@]4(OC(C)=O)[C@H]2OC(C)=O`, for which the inhibition entry in the experiment on J774.A1 [1] is “inactive”.

With `CC[C@H](C)C(=O)O[C@H]1C(C)(C)[C@H](CC(=O)OC)[C@@]2(C)[C@H]3CC[C@]4(C)[C@@H](CC(=O)O[C@H]4c4ccoc4)[C@]34O[C@@]2(O)[C@@]1(O)[C@H]4OC(=O)[C@@H](C)CC`, the inhibition entry in the experiment with J774.A1 [1] was “inactive”. Regarding `COc1ccc2c(c1)c(CC(=O)O)c(C)n2C(=O)c1ccc(Cl)cc1` [INDOMETHACIN], in the experiment with J774.A1 [2], the pIC50 is 4.54. As to `COC(=O)C[C@H]1C(C)(C)[C@H](OC(C)=O)[C@]2(O)[C@@H](OC(=O)C(C)C)[C@@]34O[C@]2(O)[C@]1(C)[C@H]3CC[C@]1(C)[C@H]4CC(=O)O[C@H]1c1ccoc1`, in the experiment with J774.A1 [1], the inhibition result is “inactive”. Take `COC(=O)C[C@H]1C(C)(C)[C@H](OC(=O)C(C)C)[C@@H]2[C@@H](OC(=O)C(C)C)[C@@]34O[C@]2(O)[C@]1(C)[C@H]3CC[C@]1(C)[C@H]4CC(=O)O[C@H]1c1ccoc1`: in the experiment on J774.A1 [1], the inhibition entry is “inactive”. For the compound `CC[C@H](C)C(=O)O[C@H]1[C@@]23O[C@]4(O)[C@@](C)([C@@H](CC(=O)OC)C(C)(C)[C@H](OC(=O)C(C)C)[C@]14O)[C@H]2CC[C@]1(C)[C@H]3CC(=O)O[C@H]1c1ccoc1`, the pIC50 in the experiment with J774.A1 [2] was 4.61.

For the compound `CC[C@H](C)C(=O)O[C@@H]1[C@H]2[C@@H](OC(=O)C(C)C)C(C)(C)[C@H](CC(=O)OC)[C@@]3(C)[C@H]4CC[C@]5(C)[C@@H](CC(=O)O[C@H]5c5ccoc5)[C@@]14O[C@@]23O`, the inhibition result in the experiment on J774.A1 [1] is “inactive”. Take `CC[C@H](C)C(=O)O[C@H]1C(C)(C)[C@H](CC(=O)OC)[C@@]2(C)[C@H]3CC[C@]4(C)C(=CC(=O)O[C@H]4c4ccoc4)[C@]34O[C@@]2(O)[C@@]1(O)[C@H]4OC(=O)C(C)C`: in the experiment with J774.A1 [1], the inhibition entry is “inactive”. In the case of `CC[C@H](C)C(=O)O[C@H]1C(C)(C)[C@H](CC(=O)OC)[C@@]2(C)[C@H]3CC[C@]4(C)C(=CC(=O)O[C@H]4c4ccoc4)[C@]34O[C@@]2(O)[C@@]1(O)[C@H]4OC(=O)[C@@H](C)CC`, the pIC50 with J774.A1 [2] is 4.50.
